# Data: ChEMBL document CHEMBL3286339, “Synthesis and in vivo SAR study of indolin-2-one-based multi-targeted inhibitors as potential anticancer agents” (Eur J Med Chem, 2014)
# The source made the active and inactive calls. The calls are words filed in the database; no cut-off is given here.
# What was measured:
# [1] = molecular target: T1, Fibroblast growth factor receptor 3 (Homo sapiens, UniProt P22607); conditions: 1 uM
# Description: Inhibition of FGFR3 (unknown origin) at 1 uM relative to control
# [2] = molecular target: ALK tyrosine kinase receptor (Homo sapiens, UniProt Q9UM73); test: Binding affinity to ALK (unknown origin)
# [3] = molecular target: T1, Fibroblast growth factor receptor 3; test: Binding affinity to FGFR3 (unknown origin)
# [4] = Antiproliferative activity against human MV411 cells after 48 hrs by MTT assay; format: functional, cell-based; conditions: MV4-11, 48 h
# [5] = molecular target: Phosphorylase b kinase gamma catalytic chain, liver/testis isoform (Homo sapiens, UniProt P15735); test: Binding affinity to PHKgamma2 (unknown origin)
# [6] = molecular target: T2, Tyrosine-protein kinase ABL1 (Homo sapiens, UniProt P00519); test: Binding affinity to ABL (unknown origin)
# NCI-H460 [7] = test: Antitumor activity against human NCI-H460 cells xenografted in BALB/c nude mouse assessed as tumor growth inhibition at 40 mg/kg/day administered qd measured up to day 21 relative to control; format: functional; conditions: NCI-H460, 504 h, read-out: TGI
# Focal adhesion kinase 1 = Focal adhesion kinase 1 (Homo sapiens, UniProt Q05397); test: Binding affinity to FAK (unknown origin)
# Aorta [8] = test: Antiangiogenic activity in Sprague-Dawley rat aortic ring at 0.2 ug/ml after 6 days by inverted microscopic analysis; format: functional, tissue-based
# [9] = Solubility of the compound in water; format: physicochemical; conditions: buffer
# [10] = molecular target: Receptor-type tyrosine-protein kinase FLT3 (Homo sapiens) (UniProt P36888); test: Inhibition of FLT3 (unknown origin) at 1 uM relative to control
# [11] = molecular target: T2, Tyrosine-protein kinase ABL1; test: Inhibition of ABL (unknown origin) at 1 uM relative to control
# [12] = molecular target: T3, Platelet-derived growth factor receptor beta (Homo sapiens, UniProt P09619); test: Inhibition of PDGFR-beta (unknown origin) at 1 uM relative to control
# [13] = molecular target: Tyrosine-protein kinase Lck (Homo sapiens, UniProt P06239); test: Binding affinity to LCK (unknown origin)
# NCI-H460 [14] = test: Antiproliferative activity against human NCI-H460 cells after 72 hrs by MTT assay; format: functional, cell-based; conditions: NCI-H460, 72 h
# [15] = molecular target: T4, Proto-oncogene tyrosine-protein kinase receptor Ret (Homo sapiens, UniProt P07949); conditions: 1 uM
# Description: Inhibition of RET (unknown origin) at 1 uM relative to control
# [16] = Antiproliferative activity against human LO2 cells after 72 hrs by MTT assay; format: cell-based; conditions: L02, 72 h
# [17] = molecular target: Phosphorylase b kinase gamma catalytic chain, liver/testis isoform (Homo sapiens) (UniProt P15735); test: Inhibition of PHKgamma2 (unknown origin) at 1 uM relative to control
# [18] = Antiproliferative activity against human HK2 cells after 72 hrs by MTT assay; format: cell-based; conditions: HK-2, 72 h
# [19] = molecular target: Vascular endothelial growth factor receptor 3 (Homo sapiens, UniProt P35916); test: Binding affinity to VEGFR3 (unknown origin)
# [20] = molecular target: T5, Mast/stem cell growth factor receptor Kit (Homo sapiens, UniProt P10721); test: Binding affinity to c-KIT (unknown origin)
# [21] = molecular target: Vascular endothelial growth factor receptor 1 (Homo sapiens, UniProt P17948); test: Inhibition of VEGFR1 (unknown origin) at 1 uM relative to control
# [22] = molecular target: T4, Proto-oncogene tyrosine-protein kinase receptor Ret; test: Binding affinity to RET (unknown origin)
# NCI-H526 = test: Antiproliferative activity against human NCI-H526 cells after 72 hrs by MTT assay; format: functional, cell-based; conditions: NCI-H526, 72 h
# Aorta [23] = test: Inhibition of micrangium generation in Sprague-Dawley rat aortic ring at 0.2 ug/ml after 6 days by inverted microscopic analysis; format: functional, tissue-based
# HT-29 = test: Antitumor activity against human HT-29 cells xenografted in BALB/c nude mouse assessed as tumor growth inhibition at 80 mg/kg/day administered qd measured up to day 21 relative to control; format: functional; set-up: scale not given: the % may be the effect or the level left
# Mus musculus [24] = test: Toxicity in BALB/c nude mouse xenografted with human HT-29 cells assessed as change in body weight at 80 mg/kg/day administered qd relative to control; format: organism-based; conditions: in vivo
# [25] = molecular target: T6, Vascular endothelial growth factor receptor 2 (Homo sapiens, UniProt P35968); test: Binding affinity to VEGFR2 (unknown origin)
# [26] = molecular target: T5, Mast/stem cell growth factor receptor Kit; conditions: 1 uM
# Description: Inhibition of c-KIT (unknown origin) at 1 uM relative to control
# [27] = molecular target: T7, Tyrosine-protein kinase ABL2 (Homo sapiens, UniProt P42684); test: Inhibition of ARG (unknown origin) at 1 uM relative to control
# [28] = molecular target: T3, Platelet-derived growth factor receptor beta; test: Binding affinity to PDGFR-beta (unknown origin)
# Mus musculus [29] = test: Toxicity in BALB/c nude mouse xenografted with human NCI-H460 cells assessed as severe weight loss at 40 mg/kg/day administered qd; format: organism-based; conditions: in vivo
# TT = test: Antiproliferative activity against human TT cells pretreated for 72 hrs followed by compound-washout measured after 72 hrs by MTT assay; format: functional, cell-based
# [30] = molecular target: T7, Tyrosine-protein kinase ABL2; test: Binding affinity to ARG (unknown origin)
# [31] = molecular target: Receptor-type tyrosine-protein kinase FLT3 (Homo sapiens, UniProt P36888); test: Binding affinity to FLT3 (unknown origin)
# Mus musculus [32] = test: Toxicity in BALB/c nude mouse xenografted with human NCI-H460 cells assessed as hematuria at 40 mg/kg/day administered qd; format: organism-based; conditions: in vivo
# [33] = molecular target: Macrophage colony-stimulating factor 1 receptor (Homo sapiens, UniProt P07333); test: Inhibition of FMS (unknown origin) at 1 uM relative to control
# Mus musculus [34] = test: Toxicity in BALB/c nude mouse xenografted with human NCI-H460 cells assessed as bloody stool at 40 mg/kg/day administered qd; format: organism-based; conditions: in vivo
# [35] = molecular target: Voltage-gated inwardly rectifying potassium channel KCNH2 (Homo sapiens, UniProt Q12809); test: Inhibition of human ERG
# [36] = molecular target: Tyrosine-protein kinase Fyn (Homo sapiens, UniProt P06241); conditions: 1 uM
# Description: Inhibition of FYN (unknown origin) at 1 uM relative to control
# [37] = molecular target: Tyrosine-protein kinase receptor UFO (Homo sapiens, UniProt P30530); test: Binding affinity to AXL (unknown origin)
# Mus musculus [38] = test: Toxicity in BALB/c nude mouse xenografted with human HT-29 cells assessed as hematuria at 80 mg/kg/day administered qd measured up to day 21; format: organism-based; conditions: in vivo
# [39] = molecular target: T8, Protein-tyrosine kinase 2-beta (Homo sapiens, UniProt Q14289); test: Inhibition of PYK2 (unknown origin) at 1 uM relative to control
# [40] = Antiproliferative activity against human Bel7402 cells after 72 hrs by MTT assay; format: functional, cell-based; conditions: Bel-7402, 72 h
# [41] = molecular target: Fibroblast growth factor receptor 1 (Homo sapiens, UniProt P11362); test: Inhibition of FGFR1 (unknown origin) at 1 uM relative to control
# [42] = molecular target: T6, Vascular endothelial growth factor receptor 2; conditions: 1 uM
# Description: Inhibition of VEGFR2 (unknown origin) at 1 uM relative to control
# [43] = molecular target: T8, Protein-tyrosine kinase 2-beta; test: Binding affinity to PYK2 (unknown origin)
# T5 sequence (P10721 whole entry): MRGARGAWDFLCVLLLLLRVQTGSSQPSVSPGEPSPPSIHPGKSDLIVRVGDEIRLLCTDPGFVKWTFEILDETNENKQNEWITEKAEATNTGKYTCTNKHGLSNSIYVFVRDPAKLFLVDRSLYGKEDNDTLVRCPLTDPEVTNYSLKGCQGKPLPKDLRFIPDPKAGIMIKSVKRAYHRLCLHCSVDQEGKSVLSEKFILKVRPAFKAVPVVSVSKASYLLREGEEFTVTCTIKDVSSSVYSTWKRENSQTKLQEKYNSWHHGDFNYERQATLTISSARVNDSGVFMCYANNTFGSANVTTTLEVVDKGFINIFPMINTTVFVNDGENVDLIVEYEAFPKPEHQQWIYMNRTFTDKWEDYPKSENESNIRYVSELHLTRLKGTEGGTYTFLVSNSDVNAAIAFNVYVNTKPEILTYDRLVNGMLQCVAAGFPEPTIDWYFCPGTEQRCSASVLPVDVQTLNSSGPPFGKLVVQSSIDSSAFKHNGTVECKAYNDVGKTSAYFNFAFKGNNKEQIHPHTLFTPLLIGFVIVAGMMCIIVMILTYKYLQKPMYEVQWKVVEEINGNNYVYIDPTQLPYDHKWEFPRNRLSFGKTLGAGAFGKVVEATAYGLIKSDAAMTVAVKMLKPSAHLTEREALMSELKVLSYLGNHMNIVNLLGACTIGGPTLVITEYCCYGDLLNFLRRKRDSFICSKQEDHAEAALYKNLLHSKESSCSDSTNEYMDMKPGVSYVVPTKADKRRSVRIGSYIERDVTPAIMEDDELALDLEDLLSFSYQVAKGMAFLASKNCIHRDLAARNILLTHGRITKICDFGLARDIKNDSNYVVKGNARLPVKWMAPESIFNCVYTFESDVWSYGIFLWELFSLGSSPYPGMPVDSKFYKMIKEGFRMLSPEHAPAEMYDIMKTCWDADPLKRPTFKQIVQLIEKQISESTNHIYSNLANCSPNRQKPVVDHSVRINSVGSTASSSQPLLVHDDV
# T3 sequence (P09619 whole entry): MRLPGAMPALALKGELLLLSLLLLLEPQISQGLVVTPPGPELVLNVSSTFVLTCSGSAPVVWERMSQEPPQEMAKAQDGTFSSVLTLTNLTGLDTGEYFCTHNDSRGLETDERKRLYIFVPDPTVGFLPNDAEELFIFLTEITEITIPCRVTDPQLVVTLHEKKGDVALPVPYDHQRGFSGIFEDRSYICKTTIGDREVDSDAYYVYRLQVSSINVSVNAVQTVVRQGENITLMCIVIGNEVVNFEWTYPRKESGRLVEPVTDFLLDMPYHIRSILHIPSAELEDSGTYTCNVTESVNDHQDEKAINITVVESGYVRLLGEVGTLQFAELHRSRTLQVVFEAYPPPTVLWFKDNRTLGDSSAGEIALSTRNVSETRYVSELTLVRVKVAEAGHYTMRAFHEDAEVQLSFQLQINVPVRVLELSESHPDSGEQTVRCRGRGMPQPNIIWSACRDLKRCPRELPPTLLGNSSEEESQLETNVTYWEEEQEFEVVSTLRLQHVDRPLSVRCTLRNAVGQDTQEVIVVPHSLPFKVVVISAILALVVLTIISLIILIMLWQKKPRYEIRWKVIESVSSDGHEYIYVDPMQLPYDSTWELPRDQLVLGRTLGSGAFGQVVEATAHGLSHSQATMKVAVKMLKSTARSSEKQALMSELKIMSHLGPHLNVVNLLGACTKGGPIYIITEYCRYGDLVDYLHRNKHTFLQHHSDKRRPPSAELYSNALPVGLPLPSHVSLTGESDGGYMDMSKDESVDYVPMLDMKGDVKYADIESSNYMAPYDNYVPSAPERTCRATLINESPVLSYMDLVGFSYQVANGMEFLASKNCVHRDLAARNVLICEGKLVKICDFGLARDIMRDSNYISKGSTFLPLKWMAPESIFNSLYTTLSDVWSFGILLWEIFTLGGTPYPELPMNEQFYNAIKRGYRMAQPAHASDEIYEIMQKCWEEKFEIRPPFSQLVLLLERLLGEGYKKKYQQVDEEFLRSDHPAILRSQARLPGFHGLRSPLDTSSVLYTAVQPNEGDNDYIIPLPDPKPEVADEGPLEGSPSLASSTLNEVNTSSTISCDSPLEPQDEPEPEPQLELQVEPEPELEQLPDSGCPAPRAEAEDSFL
# T6 sequence (P35968 whole entry): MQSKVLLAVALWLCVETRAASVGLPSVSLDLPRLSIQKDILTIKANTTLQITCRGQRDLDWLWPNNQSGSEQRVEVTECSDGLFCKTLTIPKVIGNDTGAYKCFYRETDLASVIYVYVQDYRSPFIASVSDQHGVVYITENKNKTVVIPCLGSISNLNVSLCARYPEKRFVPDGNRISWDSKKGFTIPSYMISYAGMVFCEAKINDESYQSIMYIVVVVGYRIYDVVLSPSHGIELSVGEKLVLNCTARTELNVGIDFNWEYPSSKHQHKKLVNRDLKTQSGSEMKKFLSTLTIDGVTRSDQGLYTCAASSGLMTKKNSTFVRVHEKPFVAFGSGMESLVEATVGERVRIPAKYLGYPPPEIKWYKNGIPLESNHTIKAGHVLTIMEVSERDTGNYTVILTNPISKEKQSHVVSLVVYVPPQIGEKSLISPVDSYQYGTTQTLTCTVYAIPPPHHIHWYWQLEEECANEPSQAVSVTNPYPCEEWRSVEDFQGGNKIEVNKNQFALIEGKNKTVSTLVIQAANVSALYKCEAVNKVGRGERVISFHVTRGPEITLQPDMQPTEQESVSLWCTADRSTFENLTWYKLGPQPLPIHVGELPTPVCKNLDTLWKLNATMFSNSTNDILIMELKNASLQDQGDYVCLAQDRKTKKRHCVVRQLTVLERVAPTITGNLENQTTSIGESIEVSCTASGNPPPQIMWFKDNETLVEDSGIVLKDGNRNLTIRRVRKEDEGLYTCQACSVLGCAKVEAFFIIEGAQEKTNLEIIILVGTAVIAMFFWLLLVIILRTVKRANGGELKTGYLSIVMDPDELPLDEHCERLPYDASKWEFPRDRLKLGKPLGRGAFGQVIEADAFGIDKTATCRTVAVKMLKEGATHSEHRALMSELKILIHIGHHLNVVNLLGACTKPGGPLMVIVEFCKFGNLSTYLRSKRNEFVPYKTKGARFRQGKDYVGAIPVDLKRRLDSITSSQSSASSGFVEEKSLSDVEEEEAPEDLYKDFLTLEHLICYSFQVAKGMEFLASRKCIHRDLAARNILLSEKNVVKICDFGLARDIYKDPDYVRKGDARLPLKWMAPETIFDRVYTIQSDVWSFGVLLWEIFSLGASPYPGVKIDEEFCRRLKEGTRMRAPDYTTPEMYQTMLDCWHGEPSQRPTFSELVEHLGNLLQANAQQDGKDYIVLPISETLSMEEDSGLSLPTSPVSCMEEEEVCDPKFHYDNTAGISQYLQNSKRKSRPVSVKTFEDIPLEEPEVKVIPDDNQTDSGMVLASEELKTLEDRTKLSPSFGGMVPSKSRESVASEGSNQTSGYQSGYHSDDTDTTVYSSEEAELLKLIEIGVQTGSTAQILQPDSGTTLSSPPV
# T4 sequence (P07949 whole entry): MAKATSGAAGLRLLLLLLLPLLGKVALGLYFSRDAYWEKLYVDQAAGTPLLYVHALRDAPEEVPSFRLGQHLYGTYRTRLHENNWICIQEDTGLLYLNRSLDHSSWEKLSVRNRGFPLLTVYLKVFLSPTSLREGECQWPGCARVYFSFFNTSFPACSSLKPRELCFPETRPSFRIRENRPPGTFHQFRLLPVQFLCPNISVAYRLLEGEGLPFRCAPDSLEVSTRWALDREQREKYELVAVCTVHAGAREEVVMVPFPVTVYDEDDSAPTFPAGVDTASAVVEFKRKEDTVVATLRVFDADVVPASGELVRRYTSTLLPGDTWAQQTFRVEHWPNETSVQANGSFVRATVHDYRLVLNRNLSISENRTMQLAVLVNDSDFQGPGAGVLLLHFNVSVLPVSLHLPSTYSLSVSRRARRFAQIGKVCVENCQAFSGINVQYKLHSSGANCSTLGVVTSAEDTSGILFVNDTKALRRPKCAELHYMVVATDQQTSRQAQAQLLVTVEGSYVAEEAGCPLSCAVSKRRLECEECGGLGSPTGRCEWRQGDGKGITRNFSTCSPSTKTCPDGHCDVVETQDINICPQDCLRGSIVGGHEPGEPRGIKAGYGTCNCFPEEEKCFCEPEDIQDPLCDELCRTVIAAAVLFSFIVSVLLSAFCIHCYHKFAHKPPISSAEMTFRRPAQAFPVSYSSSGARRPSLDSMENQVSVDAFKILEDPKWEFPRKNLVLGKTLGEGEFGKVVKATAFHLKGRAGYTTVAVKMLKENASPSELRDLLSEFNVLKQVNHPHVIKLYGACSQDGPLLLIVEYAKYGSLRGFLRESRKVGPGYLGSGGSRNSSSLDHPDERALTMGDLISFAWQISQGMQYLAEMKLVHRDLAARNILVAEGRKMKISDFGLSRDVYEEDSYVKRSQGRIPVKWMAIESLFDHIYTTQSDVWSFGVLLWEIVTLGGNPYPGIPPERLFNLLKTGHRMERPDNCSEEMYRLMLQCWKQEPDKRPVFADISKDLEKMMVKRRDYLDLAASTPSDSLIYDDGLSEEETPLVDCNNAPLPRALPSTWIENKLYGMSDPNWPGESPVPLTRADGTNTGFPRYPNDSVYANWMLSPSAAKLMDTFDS
# Tyrosine-protein kinase Fyn, sequence (P06241 2-537 limits assumed): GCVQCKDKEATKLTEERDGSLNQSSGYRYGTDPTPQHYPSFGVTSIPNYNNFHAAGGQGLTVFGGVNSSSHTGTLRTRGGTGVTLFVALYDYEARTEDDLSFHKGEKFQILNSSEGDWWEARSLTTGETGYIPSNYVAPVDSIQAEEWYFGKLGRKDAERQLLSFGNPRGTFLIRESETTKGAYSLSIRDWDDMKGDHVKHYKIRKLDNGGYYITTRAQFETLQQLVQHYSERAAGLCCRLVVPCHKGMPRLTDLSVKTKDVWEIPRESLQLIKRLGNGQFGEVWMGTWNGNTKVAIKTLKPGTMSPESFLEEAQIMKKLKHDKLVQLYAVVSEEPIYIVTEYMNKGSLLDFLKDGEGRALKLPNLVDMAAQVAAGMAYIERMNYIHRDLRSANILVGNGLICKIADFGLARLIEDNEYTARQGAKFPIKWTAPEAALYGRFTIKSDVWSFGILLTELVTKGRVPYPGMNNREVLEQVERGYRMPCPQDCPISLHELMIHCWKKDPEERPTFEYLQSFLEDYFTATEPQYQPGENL
smiles,measurement,setting,value
Cc1[nH]c(/C=C2\C(=O)Nc3ccc(F)cc32)c(C)c1NC(=O)CCN1CCN(C)CC1,inhibition,[1],91%
same,Ki,[2],95 nM
same,Ki,[3],89 nM
same,IC50,[4],8 nM
same,Ki,[5],840 nM
same,Ki,[6],120 nM
same,inhibition in vivo at 40 mg/kg/day,NCI-H460 [7],60.6%
same,Ki,Focal adhesion kinase 1,530 nM
same,inhibition,Aorta [8],Active
same,solubility,[9],soluble
same,inhibition,[10],100%
same,inhibition,[11],93%
same,inhibition,[12],79%
same,Ki,[13],2000 nM
same,IC50,NCI-H460 [14],6110 nM
same,inhibition,[15],99%
same,IC50,[16],41400 nM
same,inhibition,[17],51%
same,IC50,[18],6850 nM
same,Ki,[19],< 0.3 nM
same,Ki,[20],200 nM
same,inhibition,[21],52%
same,Ki,[22],18 nM
same,IC50,NCI-H526,20600 nM
same,inhibition,Aorta [23],Active
same,Activity,HT-29,84.7%
same,Activity,Mus musculus [24],6.2%
same,Ki,[25],3.8 nM
same,inhibition,[26],87%
same,inhibition,[27],76%
same,Ki,[28],19 nM
same,Activity,Mus musculus [29],Non-toxic
same,IC50,TT,70 nM
same,Ki,[30],180 nM
same,Ki,[31],< 0.3 nM
same,Activity,Mus musculus [32],Non-toxic
same,inhibition,[33],84%
same,Activity,Mus musculus [34],Non-toxic
same,IC50,[35],18800 nM
same,inhibition,[36],44%
same,Ki,[37],63 nM
same,Activity,Mus musculus [38],Non-toxic
same,inhibition,[39],72%
same,IC50,[40],14700 nM
same,inhibition,[41],71%
same,inhibition,[42],99%
same,Ki,[43],340 nM
